Measured values as given in the supplement of paper PMC10307832.

Columns and labels:
Experiment in all cases: relative viability (nuclei count vs DMSO), 5 days (fraction); higher = more cells survive
[1] = compound: C[As](C)SC[C@H](NC(=O)CC[C@H](N)C(=O)O)C(=O)NCC(=O)O [Darinaparsin] + CCNC(=O)c1noc(-c2cc(C(C)C)c(O)cc2O)c1-c1ccc(CN2CCOCC2)cc1 [Luminespib] (partner 0.01 µM)
Outline: (§1)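 Relative viability divides the nuclei count in treated wells by that in vehicle wells. Lung cancer cell lines were seeded in 1536-well plates, dosed by pin tool the next day, and fixed and stained after 5 days in one step with final 0.05% Triton X-100, 1% formaldehyde and 1 ug/ml Hoechst. Dosing was a single drug or a fixed anchor-drug dose plus five library-drug doses (not always all listed) in √10 steps, and values are medians of duplicate plates imaged at 4×.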

[2] = compound: C[As](C)SC[C@H](NC(=O)CC[C@H](N)C(=O)O)C(=O)NCC(=O)O [Darinaparsin] + CS(=O)(=O)CCNCc1ccc(-c2ccc3ncnc(Nc4ccc(OCc5cccc(F)c5)c(Cl)c4)c3c2)o1 [Lapatinib] (partner 2 µM)
Outline: as §1

[3] = compound: C[As](C)SC[C@H](NC(=O)CC[C@H](N)C(=O)O)C(=O)NCC(=O)O [Darinaparsin] + CC(=O)c1c(C)c2cnc(Nc3ccc(N4CCNCC4)cn3)nc2n(C2CCCC2)c1=O [Palbociclib] (partner 0.5 µM)
Outline: as §1

[4] = compound: CC1=C(C=C(C=C1)NC(=O)C2=CC(=CC=C2)C(C)(C)C#N)NC3=CC4=C(C=C3)N=CN(C4=O)C [AZ628] + CC1(C)CCC(c2ccc(Cl)cc2)=C(CN2CCN(c3ccc(C(=O)NS(=O)(=O)c4ccc(N[C@H](CCN5CCOCC5)CSc5ccccc5)c(S(=O)(=O)C(F)(F)F)c4)cc3)CC2)C1 [Navitoclax] (partner 0.5 µM)
Outline: as §1

Cell Line | relative viability ([1]; first compound 0.08 µM) | relative viability ([1]; first compound 0.8 µM) | relative viability ([1]; first compound 2.53 µM) | relative viability ([1]; first compound 8 µM) | relative viability ([2]; first compound 0.08 µM) | relative viability ([2]; first compound 0.8 µM) | relative viability ([2]; first compound 2.53 µM) | relative viability ([2]; first compound 8 µM) | relative viability ([3]; first compound 0.08 µM) | relative viability ([3]; first compound 0.8 µM) | relative viability ([3]; first compound 2.53 µM) | relative viability ([3]; first compound 8 µM) | relative viability ([4]; first compound 0.08 µM) | relative viability ([4]; first compound 0.253 µM) | relative viability ([4]; first compound 0.8 µM) | relative viability ([4]; first compound 2.53 µM) | relative viability ([4]; first compound 8 µM)
NCI-H322M | 1.01 | 0.859 | 0.596 | 0.839 | 0.611 | 0.603 | 0.52 | 0.603 | 0.478 | 0.456 | 0.487 | 0.442 | 1.34 | 1.14 | 1.19 | 1.24 | 0.914
SK-MES-1 | 1.19 | 0.691 | 0.88 | 0.864 | 0.539 | 0.444 | 0.439 | 0.519 | 0.308 | 0.303 | 0.298 | 0.314 | 1.22 | 1.25 | 1.39 | 1.23 | 1.21
A-427 | 1.24 | 0.967 | 0.803 | 1.4 | 1.08 | 1.06 | 1.04 | 1.22 | 0.585 | 0.494 | 0.567 | 0.549 | 0.875 | 0.826 | 0.726 | 0.671 | 0.31
NCI-H1355 | 0.702 | 0.725 | 0.559 | 0.568 | 1.11 | 0.845 | 0.893 | 1.17 | 0.445 | 0.398 | 0.322 | 0.387 | 0.99 | 0.808 | 0.931 | 0.903 | 0.746
NCI-H2170 | 0.82 | 0.381 | 0.727 | 1.1 | 0.283 | 0.257 | 0.286 | 0.285 | 0.427 | 0.425 | 0.385 | 0.411 | 0.654 | 0.636 | 0.707 | 0.748 | 0.721
NCI-H1793 | 0.238 | 0.162 | 0.161 | 0.175 | 0.675 | 0.632 | 0.902 | 0.916 | 0.359 | 0.374 |  | 0.369 | 0.533 | 0.511 | 0.53 | 0.384 | 0.285
NCI-H2023 | 0.927 | 0.714 | 0.827 | 0.882 | 1 | 0.85 | 0.63 | 1.2 | 0.393 | 0.333 | 0.344 | 0.431 | 1.01 | 1.02 | 1.03 | 0.996 | 0.762
NCI-H520 | 0.219 | 0.21 | 0.222 | 0.192 | 1.11 | 0.817 | 0.802 | 0.794 | 0.149 | 0.208 | 0.216 | 0.248 | 1.18 | 0.842 | 1.05 | 0.968 | 0.772
NCI-H2087 | 0.159 | 0.162 | 0.204 | 0.184 | 1.29 | 1.02 | 0.951 | 0.997 | 0.225 | 0.215 | 0.169 | 0.204 | 0.746 | 0.676 | 0.64 | 0.669 | 0.267
NCI-H2009 | 1.18 | 1.01 | 1.01 | 1.07 | 0.992 | 0.93 | 0.888 | 0.915 | 0.208 | 0.166 | 0.225 | 0.203 | 1.11 | 0.94 | 0.98 | 1.04 | 0.455
NCI-H1993 | 0.957 | 0.698 | 0.724 | 0.723 | 0.854 | 0.736 | 0.722 | 0.534 | 0.586 | 0.743 | 0.59 | 0.68 | 1 | 0.872 | 0.859 | 0.688 | 0.709
COR-L23 | 1.12 | 0.64 | 0.661 | 0.64 | 1.41 | 0.811 | 0.716 | 1.16 | 0.303 | 0.335 | 0.246 | 0.299 | 1.02 | 1.12 | 1.2 | 1.07 | 0.492
NCI-H1792 | 0.681 | 0.387 |  | 0.539 | 1.26 | 0.83 | 0.696 | 0.927 | 0.634 | 0.633 | 0.524 | 0.754 | 0.682 | 0.619 | 0.545 | 0.591 | 0.44
HOP-62 | 1.1 | 0.811 | 0.793 | 1.09 | 1.12 | 1.01 | 0.97 | 1.29 | 0.541 | 0.411 | 0.385 | 0.593 | 1.09 | 1.17 | 1.02 | 1.1 | 0.729
NCI-H1437 | 1.32 | 1.21 | 1.08 | 1.36 | 1.15 | 0.769 | 0.719 | 0.974 | 0.321 | 0.307 | 0.328 | 0.338 | 1.09 | 1.09 | 1.19 | 1.25 | 1.07
NCI-H1755 | 0.491 | 0.393 | 0.411 | 0.57 | 1.1 | 0.981 | 1.01 | 1.46 | 0.483 | 0.457 | 0.46 | 0.469 | 0.998 | 1 | 1.05 | 1.02 | 0.956
NCI-H3122 | 0.0869 | 0.0882 | 0.107 | 0.112 | 1.16 | 0.986 | 1.03 | 1.14 | 0.19 | 0.223 | 0.223 | 0.201 | 0.929 | 0.762 | 0.73 | 0.555 | 0.42
